Data from patent US20210196731A1, “COMPOSITIONS AND METHODS FOR TREATING OCULAR INFLAMMATION AND OCULAR SCARRING” (priority 2018, published 2021).

Key:
HTCFs [1] = test: Collagen Contraction Assay V (AHGF induced, APHS and gentamicin vs mitomycin C); format: cell-based, human; conditions: APHS 12 and 24 μg/ml
Method: HTCFs were seeded at a density of 2.5×10^5 cells/mL within an extracellular matrix (ECM) mixture containing 400 ul of rat tail-derived type I collagen (1.8 mg/ml), 80 ul of neutralizing solution (equal parts Waymouth's media (Gibco, CAT. NO: 11220035) and 0.275M NaOH) and 20 ul of HTCF conditioned media (concentrated to 25× to obtain a 1× final concentration within the 500 ul matrix solution). The cell-collagen solution was pipetted gently to ensure homogenous distribution of HTCFs while avoiding the production of air bubbles, then 500 ul were pipetted into each well of a 24-well tray. Collagen constructs were allowed to polymerize at 37 C for 45 minutes before adding low serum culture media containing DMEM, 2% Fetal Bovine Serum (FBS), 1% penicillin/streptomycin (P/S).
Tension was allowed to build up within the tethered matrix at 37 C and 5% CO2 for 72 hours before a sterile spatula was used to detach each collagen construct from the edges of the culture well. Plates were then immediately scanned on a flat bed laser scanner to record baseline area, and then measured periodically for a duration of 4 days. The surface area of each collagen construct was measured using ImageJ (NIH) and standardized against the baseline surface area measurement to express changes in area as a percentage of original surface area. […]

HTCFs [2] = test: Lipid Mediator Secretion Assay II (ASA or APHS with and without gentamicin, LC-MS/MS); format: cell-based, human; conditions: for CytoM1+TGFb1 induced COX2 activity, as measured through PGE2 and kPGF1a secretion / secretion of acetylated-COX2 products, as measured through 5-HETE and 15-HETE secretion: ASA 500 or 1000 μg/ml, with or without gentamicin 250 or 500 μg/ml, 6-48 hrs; for secretion of acetylated-COX2 products, as measured through 5-HETE and 15-HETE secretion: CytoM1+TGFb1
Method: To this end, as before, multiple primary HTCF cell lines were cultured in DMEM w/10% FBS in 6-well culture plates, incubated at 37° C. and 5% CO2, until 90% confluent. The culture media was removed, wells washed with PBS, and then fresh DMEM w/0% FBS was added. After 24 hrs of serum starvation, fresh DMEM w/0% FBS was added, this time containing a physiologically relevant inflammation/wound healing induction mixture (1 ng/ml each of: IL-1b, TNFa, IFNγ, TGFb). After 12 hrs incubation, the induction media was removed, the wells were washed with PBS and fresh DMEM w/0% FBS was added containing one of ten experimental treatments for an incubation period of 48 hrs: 1) non-induced control (NIC: received DMEM w/0% FBS instead of the induction media), and 2) CytoM1+TGFB1 (DMEM w/0% FBS and 1 ng/ml each of: IL-1b, TNFa, IFNγ, TGFb), and 3) CytoM1/TGFB1/Gent250 (DMEM w/0% FBS, 1 ng/ml each of TGFB1, TGFB2, VEGF, CCN2 and 250 μg/ml gentamicin), and 4) CytoM1/TGFB1/Gent500 (DMEM w/0% FBS, 1 ng/ml each of TGFB1, TGFB2, VEGF, CCN2 and 500 μg/ml gentamicin), and 5) CytoM1/TGFB1/ASA500 (DMEM w/0% FBS, 1 ng/ml each of TGFB1, TGFB2, VEGF, CCN2, and 500 μg/ml ASA), and 6) CytoM1/TGFB1/ASA500/Gent250 (DMEM w/0% FBS, 1 ng/ml each of TGFB1, TGFB2, VEGF, CCN2, 500 μg/ml ASA and 250 μg/ml gentamicin), and 7) CytoM1/TGFB1/ASA1000 (DMEM w/0% FBS, 1 ng/ml each of TGFB1, TGFB2, VEGF, CCN2 and 1000 μg/ml ASA), and 8) CytoM1/TGFB1/ASA1000/Gent500 (DMEM w/0% FBS, 1 ng/ml each of TGFB1, TGFB2, VEGF, CCN2, 1000 μg/ml ASA, and 500 μg/ml gentamicin), and 9) CytoM1/TGFB1/APHS12 (DMEM w/0% FBS, 1 ng/ml each of TGFB1, TGFB2, VEGF, CCN2 and 12 μg/ml o-(acetoxyphenyl)hept-2-ynyl sulfide (APHS), and 10) CytoM1/TGFB1/APHS12/Gent250 (DMEM w/0% FBS, 1 ng/ml each of TGFB1, TGFB2, VEGF, CCN2, 12 μg/ml o-(acetoxyphenyl)hept-2-ynyl sulfide (APHS) and 250 μg/ml gentamicin). At 6, 12, 24 and 48 hrs after addition of the experimental treatments, 250 ul of supernatant was removed from each well, replaced with 250 ul of fresh DMEM w/0% FBS, and stored at −80° C. for subsequent LC-MS/MS analysis. After 48 hrs, the wells were washed with ice cold PBS three times and total cellular protein from the HTCF monolayer was collected for quantification and subsequent western blot analyses. The absolute quantity of protein within each culture well's HTCF monolayer was used as a means to standardize the relative secretion of lipid mediators by HTCFs into the culture well's supernatant.
This is a well-established method to determine the relative activity of cyclooxygenase, acetyl-COX2 and lipoxygenase biosynthetic pathways. In brief, the ratios of the integrated areas of the chromatographic peaks corresponding to each analyte and the integrated areas of the peaks corresponding to each analyte's internal standard (with known absolute quantity) are used to determine the relative quantity of each analyte in a given sample. After supernatant sample collection, 250 ul of methanol containing 100 μg of each deuterated internal standard was added. Samples were then vigorously vortexed and centrifuged at 10,000 g for 10 min before loading onto solid-phase extraction cartridges (Strata-X 33 um Polymeric Reversed Phase, 10 mg, Phenomenex 8B-S100-AAK), that were previously activated with 2 ml methanol and rinsed with 2 ml water. […] After washing with 5 ml water, extracts were eluted with 1 ml methanol. Solvent was then evaporated under vacuum in a SpeedVac centrifuge, and the extract was resuspended in 100 ul acetonitrile/water 60:40 (v/v). An aliquot of 20 ul was injected into the LC-MS/MS system for analysis. […] A Sciex Triple Quad 6500+ mass spectrometer with multiple reaction monitoring was used in negative ion mode. The chromatographic profile of the ion count for each m/z transition was monitored, and the area under the peaks (ion intensity vs elution time) was integrated using commercial software (MultiQuant, Sciex).

CCCCC#CCSc1ccccc1OC(C)=O [APHS, o-(acetoxyphenyl)hept-2-ynyl sulfide]
AHGF-induced HTCF-mediated collagen contraction (HTCFs [1]): significantly inhibited AHGF-induced HTCF-mediated collagen contraction | net enzymatic activity, acetylated-COX2 vs COX2 production of lipid mediators (HTCFs [2]; APHS 12 μg/ml, alone or with gentamicin 250 μg/ml, vs inf. cytokines control): significantly shift the net enzymatic activity toward net acetylated-COX2 production of lipid mediators | CytoM1+TGFb1 induced COX2 activity, as measured through PGE2 and kPGF1a secretion (HTCFs [2]; APHS 12 μg/ml): significantly inhibit COX2 activity | secretion of acetylated-COX2 products, as measured through 5-HETE and 15-HETE secretion (HTCFs [2]; APHS 12 μg/ml): profoundly and significantly increased the secretion of acetylated-COX2 products relative to all other treatment groups

CC(=O)Oc1ccccc1C(=O)O [ASA, acetylsalicylic acid]
relative amount of COX2 products relative to inf. cytokines control (HTCFs [2]; ASA 500 μg/ml): significantly reduce the relative amount of COX2 products relative to the inf. cytokines control group | balance of enzymatic activity (COX2:acetyl-COX2 ratio) (HTCFs [2]; ASA 500 μg/ml, alone or with gentamicin 250): positive values for the COX2:acetyl-COX2 ratio at all timepoints | relative amount of COX2 products relative to inf. cytokines control (HTCFs [2]; ASA 1000 μg/ml): significantly reduce the relative amount of COX2 products relative to the inf. cytokines control group | balance of enzymatic activity (COX2:acetyl-COX2 ratio) (HTCFs [2]; ASA 1000 μg/ml, alone or with gentamicin 500): unable to significantly shift the balance of enzymatic activity toward net actyl-COX2 production relative to COX2 production | CytoM1+TGFb1 induced COX2 activity, as measured through PGE2 and kPGF1a secretion (HTCFs [2]; APHS 12 μg/ml): significantly inhibit CytoM1+TGFb1 induced COX2 activity | secretion of acetylated-COX2 products, as measured through 5-HETE and 15-HETE secretion (HTCFs [2]; APHS 12 μg/ml): either no effect or a significantly smaller effect on acetylated-COX2 products relative to the ASA/Gent experimental group
